Assay: Pulsating bubble surfactometry (PBS), dynamic-mode cycling at 20 cpm
Format: physicochemical
Settings: 37° C.; for γmax: time point not stated; for % comp (percent SA compression to reach 20 mN m^−1): PBS dynamic-mode, 20 cpm, 100*[(SAmax−SA20)/(SAmax)]
Procedure: The maintenance of good surfactant activity during the dynamic changes in volume or film surface area at the a/l interface was assessed via bubble pulsation in PBS dynamic-mode. This method permits a simplified evaluation of in vitro dynamic film behavior. (Seurynck, S. L., Brown, N. J., Wu, C. W., Germino, K. W., Kohlmeir, E. K., Ingenito, E. P., Glucksberg, M. R., Barron, A. E., and Johnson, M. (2005) J. Appl. Physiol. 99, 624-633.) The γ-surface area (SA) data loops in FIG. 4B for each lipid-peptoid mixture are one representative pulsation cycle at 20 cycles per minute (cpm) after five minutes at 37° C., with bubble expansion in a clockwise loop direction.
The absence of low-γ data in some loops results from the inability of the image analysis system to trace the bubble shape in this regime. The highly compressed state of the film, which enables it to reach low γ, often causes significant bubble shape deformation, eliminating the possibility of tracing the bubble to obtain SA or employing the ellipsoidal Laplace equation to calculate γ. […] Visual, real-time bubble inspection confirmed that significant bubble deformation occurred and that γ reached near-zero in these films.
The lipids DPPC, POPG, and PA were individually dissolved in a chloroform/methanol solution (3/1 [v/v]) to a known concentration (˜2 or 4 mg mL^−1). Single-lipid solutions were then combined by volume at the ratio of DPPC:POPG:PA, 68:22:9 [wt:wt:wt] and to a known total lipid concentration (˜2 mg mL^−1). This well-characterized lipid formulation, the Tanaka Lipids (TL), is considered an adequate mimic of the non-protein (lipid) fraction of LS. The peptides and peptoids were individually dissolved in methanol from a lyophilized powder to a known concentration (1-2 mg mL^−1). For the PBS and LWSB/FM studies, the peptides and peptoids were added to the TL lipid solution at 2.16 mol % (˜10-12 absolute wt %, see Table 1), and the final solution was diluted to ˜1 mg lipid mL^−1. For comparative purposes, the inclusion of peptide/peptoid at 2.16 mol % corresponds to 10 wt % SP-B1-25 relative to the total lipid content (9.1 absolute wt %). Porcine SP-B was dissolved to a known concentration in chloroform/methanol and added to the TL solution at 0.72 mol %, corresponding to roughly 10 wt % of the monomer unit relative to the total lipid content (9.1 absolute wt %). For PBS and LWSB experiments, the standard deviation of the mean (a) was reported.
A commercial pulsating bubble surfactometry (PBS) instrument (General Transco, Largo, FL), modified with a direct, real-time imaging system, which has been previously described and validated in detail, was utilized to obtain both static-mode and dynamic-mode data. Samples were dried to a pellet from chloroform/methanol 3/1 [v/v] using a DNA 120 speedvac (Thermo Electron, Holbrook, N.Y.). The pellet was resuspended in buffer (150 mM NaCl, 10 mM HEPES, 5 mM CaCl2, pH 6.9) to 1.0 mg lipid mL^−1, with a known final volume of 70 μL. Samples were mixed with a pipette 20 times, sonicated with a Fisher Model 60 probe sonicator for two 15-second spurts, and then mixed again 20 times to form a dispersed suspension. Samples were then loaded into a small plastic sample chamber (General Transco) using a modified leak-free methodology. […]

Substance | γmin (PBS dynamic-mode in a TL film) | γmax (PBS dynamic-mode in a TL film) [mN m^−1] | % comp (percent SA compression to reach 20 mN m^−1) [%]
Nspe8-NLys*-Nspe2-NLys2-Nspe4-NLys-Nspe2 [peptoid 1] | near-zero | 46 | ~26
Noct2-Nspe6-NLys-Nspe2-NLys2-Nspe4-NLys-Nspe2 [peptoid 3] | – | ~35 | 12

Source: US20130065833A1, “ALKYLATED SP-B PEPTOID COMPOUNDS AND RELATED LUNG SURFACTANT COMPOSITIONS” (Northwestern University, priority 2010, published 2013)
